Experimental data published in patent US20040220164A1, “Triaza compound immunoregulatory agents” (priority 2001, published 2004).
Converted amounts (≈) assume the structure as drawn. Like-named read-outs stand apart in the source and are kept apart here.

Assays:
Assay type in all cases: cell-based
HHV-7 (KHR strain) = assay: Anti-HHV-7 assay in SupT1 cells (antigen expression, flow cytometry, Example 3); conditions: SUP-T1; SupT1 cells; read-out: IC50 HHV-7 (50% reduction of HHV-7 antigen expression)
Procedure, shortened: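 SupT1 cells pre-incubated 30 min at room temperature with five-fold compound dilutions, then infected with HHV-7. Every 2–3 days from day 4, half the medium and cells were replaced with compound-free medium. Once microscopic CPE appeared, HHV-7 antigen expression was measured by flow cytometry.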

CD4 [1] = molecular target: T1, CD4 (Homo sapiens, UniProt P01730); assay: Cell surface CD4 expression by flow cytometry (anti-CD4 mAb Leu3a-PE); set-up: To study the effect of the CADA derivatives on surface CD4 antigen expression, MT-4 and SupT1 cells were incubated; endogenous in cells; host or cells: MT-4, SupT1, PBMC; conditions: for CD4 cell surface antigen expression: percentage of positive cells, unit not given; for surface CD4 antigen expression: CADA 3.2 μM; for percentage of cell surface CD4 expression: ATA 24 μM, PMA 8 nM (FIG. 4)
Procedure, shortened: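 MT-4, SupT1 cells and PBMCs were exposed at 37° C to CADA hydrochloride (3.2 or 16 μM) for 20 min to 4 days, with ATA (24 μM) and PMA (8 nM) as comparators in SupT1. Cells were stained with PE-anti-CD4 (Leu3a) for 20 min at 4° C and fixed in 1% formaldehyde. Read-out was flow cytometry as % positive cells and MFI.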

HIV-1 strain NL4.3 = assay: Anti-HIV-1 assay in MT-4 cells (p24 Ag ELISA, Example 3)
Procedure, shortened: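 MT-4 cells infected with HIV-1 NL4.3 in presence of five-fold compound dilutions, incubated 3–5 days until strong viral CPE in untreated infected cells. Supernatant p24 core antigen measured by ELISA; IC50 is concentration giving 50% reduction in p24.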

CD4 [2] = molecular target: T1, CD4; assay: CD4 down-modulation, flow cytometry with FITC-conjugated anti-CD4 (SK3) mAb, SupT1 cells; set-up: To study the effect of the CADA derivatives on surface CD4 antigen expression, MT-4 and SupT1 cells were incubated; endogenous in cells; host or cells: MT-4, SupT1, PBMC; conditions: for IC50: day 4, read-out: IC50 CD4 (50% inhibition of extracellular CD4 expression) (converted)
Procedure, shortened: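 MT-4 and SupT1 cells were exposed at 37 °C to 5-fold compound dilutions (50–0.08 μg/ml). On day 3 (MT-4) or day 4 (SupT1) they were stained with FITC anti-CD4 (SK3) for 30 min at 4 °C and analysed by flow cytometry. IC50 was derived from MFI as % of untreated control, after isotype subtraction.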

[3] = Human immunodeficiency virus 1, MT4, 96 h, MT-4 cells, 0.4 μg/ml, 4 days (FIG. 5), read-out: inhibition of NL4.3 virus production (p24)
[4] = Human immunodeficiency virus 1, MT4, MT-4 cells, read-out: IC50 HIV-1 (NL4.3), p24 Ag ELISA

With `C=C1CN(S(=O)(=O)c2ccc(C)cc2)CCCN(Cc2ccccc2)CCCN(S(=O)(=O)c2ccc(C)cc2)C1` [CADA] the IC50 (HHV-7 (KHR strain)) was 0.35 µg/mL (≈ 0.602 µM), the “CD4 cell surface antigen expression” value (CD4 [1]; MT-4 T-cells, CADA 16 μM, 4 days) was 6.3 and the “surface CD4 antigen expression” value (CD4 [1]; MT-4 cells, 1 day, control 95.6%) was 4.9%. The “surface CD4 antigen expression” value (CD4 [1]; MT-4 cells, 4 days, control 95.6%) was 6.3%, the “percentage of CD4 expression” value (CD4 [1]; PBMCs, CADA 16 μM, 4 days) was 0.2% and the “CD4 cell surface antigen expression” value (CD4 [1]; PBMCs, CADA 16 μM, 4 days) was 0.2. The “CD4 cell surface antigen expression” value (CD4 [1]; SupT1 T-cells, CADA 16 μM, 4 days) was 1.2, the “percentage of cell surface CD4 expression” value (CD4 [1]; SupT1 cells, 20 minutes, CADA 16 μM) was “still as high as in the untreated cells” and the “percentage of cell surface CD4 expression” value (CD4 [1]; SupT1 cells, 4 hours, CADA 16 μM) was “still as high as in the untreated cells”. For the same molecule, the “percentage of cell surface CD4 expression” value (CD4 [1]; SupT1 cells, 1 day, CADA 16 μM) was “decrease became clearly visible”, the “percentage of cell surface CD4 expression” value (CD4 [1]; SupT1 cells, 4 days, CADA 16 μM) was 1.2% and the “surface CD4 antigen expression” value (CD4 [1]; SupT1 cells, 1 day, control 96.4%) was 46.4%. The “surface CD4 antigen expression” value (CD4 [1]; SupT1 cells, 4 days, control 96.4%) was 1.2%, the “effect of human serum on CD4 down-modulation induced by CADA” value (CD4 [1]; presence of human serum) was “did not affect” and the inhibition at 0.4 µg/mL (HIV-1 strain NL4.3; [3]) was 25%. The IC50 (HIV-1 strain NL4.3; [4]) was 0.72 µg/mL (≈ 1.24 µM), the IC50 (HIV-1 strain NL4.3; Human immunodeficiency virus 1, MT4 cells, Table 6, unit inferred, read-out: IC50(HIV-1)) was 0.52 µg/mL (≈ 0.894 µM) and the “inhibition of NL4.3 virus production (p24)” value (“inhibition … (p24)” for short) (HIV-1 strain NL4.3; MT-4 cells, 0.08 μg/ml, 4 days (FIG. 5)) was “no anti-HIV-1 activity”. For the same molecule, the “inhibition … (p24)” value (HIV-1 strain NL4.3; MT-4 cells, 2 μg/ml, 4 days (FIG. 5)) was “significant inhibition”, the “inhibition … (p24)” value (HIV-1 strain NL4.3; MT-4 cells, 10 μg/ml, 4 days (FIG. 5)) was “significant inhibition” and the p24 level (HIV-1 strain NL4.3; MT-4 cells, NL4.3, 0.08 μg/ml, 4 days, infected control cells 325 ng/ml) was 392 ng/mL. For the same molecule, the IC50 (CD4 [2]) was 980 nM.

With `C=C1CN(S(=O)(=O)c2ccc(C)cc2)CCCN(CC2CCCCC2)CCCN(S(=O)(=O)c2ccc(C)cc2)C1` [QJ028] the IC50 (HHV-7 (KHR strain)) was 0.05 µg/mL (≈ 0.0851 µM), the “down-regulation of CD4 expression (in words)” value (CD4 [1]) was “down-regulate CD4 expression” and the inhibition at 0.4 µg/mL (HIV-1 strain NL4.3; [3]) was 88%. The IC50 (HIV-1 strain NL4.3; [4]) was 0.2 µg/mL (≈ 0.34 µM), the “selectivity index (CC50/IC50)” value (CD4 [2]) was “approximately 100” and the IC50 (CD4 [2]) was 425 nM.

`C=C1CN(S(=O)(=O)c2ccc(C)cc2)CCCN(C(=O)OCCC)CCCN(S(=O)(=O)c2ccc(C)cc2)C1` [QJ033] was tested, and the IC50 (HHV-7 (KHR strain)) was 0.73 µg/mL (≈ 1.26 µM), the “down-regulation of CD4 expression (in words)” value (CD4 [1]) was “down-regulate CD4 expression” and the inhibition at 2 µg/mL (HIV-1 strain NL4.3; Human immunodeficiency virus 1, MT4, 96 h, MT-4 cells, 2 μg/ml, 4 days (FIG. 5), read-out: inhibition of NL4.3 virus production (p24)) was 56%. The IC50 (HIV-1 strain NL4.3; [4]) was 1.22 µg/mL (≈ 2.11 µM), the “inhibition … (p24)” value (HIV-1 strain NL4.3; MT-4 cells, 0.4 μg/ml, 4 days (FIG. 5)) was “no antiviral activity” and the IC50 (CD4 [2]) was 3270 nM.
